Reference: patent publication US12428378B2, “Methods and materials for increasing level of phosphorylated AMPK protein” (University of Pittsburgh—Of the Commonwealth System of …, priority 2019, dated 2025)

Test system: pAMPK
Test: pAMPK immunostaining chemiluminescence assay in Beas2B cells
Assay type: cell-based
Settings: Homo sapiens, BEAS-2B, 18 h, DMEM no glucose media, compounds 3-34, 36-44, 47-60 tested as HCl salts, read-out: efficacy (minimal compound concentration needed to increase pAMPK by 30%)
Description: Beas2B cells were plated in 384 white nunc plate (4000 cells per well) for overnight. Compounds were serially diluted in DMEM no glucose media using the liquid handler. Cells were washed once using Biotek EL406 before compound addition for additional 18 hours. Cells were washed and fixed with PFA before immunostained with pAMPK primary antibody and anti-Rabbit HRP secondary antibody. Finally, 25 μl of ECL reagent will be added to cells, and chemical luminescence signal will be counted using plate reader. Compounds efficacies (μM) were determined by the minimal compound concentration needed to increase pAMPK by 30%. Activity: “+” equals >10 μM; “++” equals between ≤10 μM and >1 μM; and “+++” equals ≤1 μM.

SMILES: COC(=O)C1c2ccccc2CCN1CCCOc1ccc(C(F)(F)F)cc1 (stereo not drawn) [compound 187]
- EC (30% increase): ≤ 1 µM

SMILES: Cc1ccccc1CN(CCCOc1ccc(C(F)(F)F)cc1)Cc1ccnnc1 [compound 182]
- EC (30% increase): ≤ 1 µM

SMILES: Cc1ccccc1CN(CC(O)COc1ccc(C(F)(F)F)cc1)C(=O)c1ncc[nH]1 (stereo not drawn) [compound 77]
- EC (30% increase): 1 to 10 µM

SMILES: Cc1ccccc1CN(Cc1cnn(C)c1)CC(O)COc1ccc(C(F)(F)F)cc1 (stereo not drawn) [compound 38]
- EC (30% increase): 1 to 10 µM

SMILES: OC(COc1ccc(C(F)(F)F)cc1)CN1CCc2ccccc2[C@@H]1c1ccccc1 (stereo partly drawn) [compound 111]
- EC (30% increase): 1 to 10 µM

SMILES: Cc1ccc(C(=O)N(Cc2ccccc2C)CC(O)COc2ccc(C(F)(F)F)cc2)cc1 (stereo not drawn) [compound 67]
- EC (30% increase): ≤ 1 µM

SMILES: Cc1ccccc1CN(CC(O)COc1ccc(C(F)(F)F)cc1)C(=O)c1c[nH]nc1C (stereo not drawn) [compound 89]
- EC (30% increase): 1 to 10 µM

SMILES: Cc1ccccc1CN(Cc1cccnc1)CC(C)(C)COc1ccc(C(F)(F)F)cc1 [compound 121]
- EC (30% increase): ≤ 1 µM

SMILES: OC(COc1ccc(C(F)(F)F)cc1)CN(Cc1cccnc1)Cc1cccnc1 (stereo not drawn) [compound 7]
- EC (30% increase): ≤ 1 µM

SMILES: O=C(C(O)COc1ccc(C(F)(F)F)cc1)N(Cc1cccnc1)Cc1ccccc1Cl (stereo not drawn) [compound 137]
- EC (30% increase): ≤ 1 µM

SMILES: O[C@H](COc1ccc(C(F)(F)F)cc1)CN1Cc2ccccc2C[C@H]1c1cccnc1 [compound 133]
- EC (30% increase): ≤ 1 µM

SMILES: CC(C)(COc1ccc(C(F)(F)F)cc1)CN(Cc1cccnc1)Cc1ccccc1C(F)(F)F [compound 197]
- EC (30% increase): ≤ 1 µM

SMILES: FC(F)(F)c1ccc(OCCCc2nc3ccccc3cc2-c2ccccc2)cc1 [compound 92]
- EC (30% increase): 1 to 10 µM

SMILES: FC(F)(F)c1ccc(OCC2(CN(Cc3cccnc3)Cc3ccccc3Cl)CC2)cc1 [compound 142]
- EC (30% increase): ≤ 1 µM

SMILES: Cn1ccnc1CN(CCOc1ccc(C(F)(F)F)cc1)Cc1ccccc1F [compound 158]
- EC (30% increase): ≤ 1 µM

SMILES: Cc1ccccc1CN(CC(C)(C)COc1ccc(C(F)(F)F)cc1)C(=O)c1cncn1C [compound 192]
- EC (30% increase): ≤ 1 µM

SMILES: FC(F)(F)c1ccc(OCCN(Cc2cncs2)Cc2ccccc2Cl)cc1 [compound 172]
- EC (30% increase): ≤ 1 µM

SMILES: [2H]C([2H])(c1cccnc1)N(CCCOc1ccc(C(F)(F)F)cc1)Cc1ccccc1C [compound 135]
- EC (30% increase): ≤ 1 µM

SMILES: Cc1ccccc1CN(CC(O)COc1ccccc1)C(=O)c1ccc(C(F)(F)F)nc1 (stereo not drawn) [compound 88]
- EC (30% increase): ≤ 1 µM

SMILES: Cn1cncc1C(=O)N(Cc1ccccc1Cl)CC(C)(O)COc1ccc(C(F)(F)F)cc1 (stereo not drawn) [compound 201]
- EC (30% increase): 1 to 10 µM

SMILES: OC(COc1ccc(C(F)(F)F)cc1)CN(Cc1ccccc1)Cc1cccnc1 (stereo not drawn) [compound 43]
- EC (30% increase): ≤ 1 µM

SMILES: Cn1cncc1C(=O)N(Cc1ccccc1Cl)CC(O)COc1cnc(C(F)(F)F)nc1 (stereo not drawn) [compound 148]
- EC (30% increase): > 10 µM

SMILES: O=C(CCOc1ccc(C(F)(F)F)cc1)N(Cc1ccccc1)Cc1ccccc1 [compound 35]
- EC (30% increase): 1 to 10 µM

SMILES: Cc1ccncc1CN(Cc1ccccc1)CC(O)COc1ccc(C(F)(F)F)cc1 (stereo not drawn) [compound 27]
- EC (30% increase): ≤ 1 µM

SMILES: Cc1ccccc1CN(CC(O)COc1ccc(C(F)(F)F)cc1)C(=O)c1ccccc1 (stereo not drawn) [compound 66]
- EC (30% increase): ≤ 1 µM

SMILES: OC(COc1ccc(C(F)(F)F)cc1)CN(Cc1ccccc1)Cc1cncnc1 (stereo not drawn) [compound 13]
- EC (30% increase): ≤ 1 µM

SMILES: Cc1ccccc1CN(CC(O)COc1ccc(C(F)(F)F)cc1)C(=O)c1cn(C)cn1 (stereo not drawn) [compound 80]
- EC (30% increase): 1 to 10 µM

SMILES: Cc1ccccc1CN(CC(=O)COc1ccc(C(F)(F)F)cc1)C(=O)c1cccnc1 [compound 123]
- EC (30% increase): 1 to 10 µM

SMILES: OC(COc1ccc(C(F)(F)F)cc1)CN(Cc1ccccc1)C1(c2cccnc2)CC1 (stereo not drawn) [compound 48]
- EC (30% increase): ≤ 1 µM

SMILES: O=C(c1cccnc1)N(Cc1ccccc1Cl)CC(O)COc1ccc(C(F)(F)F)cc1 (stereo not drawn) [compound 141]
- EC (30% increase): ≤ 1 µM

SMILES: Cc1ccccc1CN(CC(O)COc1ccc(C(F)(F)F)cc1)C(=O)c1cccnc1 (stereo not drawn) [compound 45]
- EC (30% increase): ≤ 1 µM

SMILES: Fc1ccccc1CN(CCOc1ccc(C(F)(F)F)cc1)Cc1cccnc1 [compound 156]
- EC (30% increase): ≤ 1 µM

SMILES: Cn1ccnc1CN(CCOc1ccc(C(F)(F)F)cc1)Cc1ccccc1Cl [compound 157]
- EC (30% increase): ≤ 1 µM

SMILES: Cn1cncc1C(=O)N(CCCOc1cnc(C(F)(F)F)nc1)Cc1ccccc1Cl [compound 168]
- EC (30% increase): > 10 µM

SMILES: OC(COc1ccc(C(F)(F)F)cc1)CN1Cc2ccccc2C[C@@H]1c1cccnc1 (stereo partly drawn) [compound 129]
- EC (30% increase): ≤ 1 µM

SMILES: CC(C)(COc1ccc(C(F)(F)F)cc1)CN(Cc1cccnc1)Cc1cccnc1 [compound 184]
- EC (30% increase): ≤ 1 µM

SMILES: OC(COc1ncccn1)CN(Cc1ccccc1)Cc1ccccc1 (stereo not drawn) [compound 15]
- EC (30% increase): > 10 µM

SMILES: Cc1ccccc1CN(CCc1ccccn1)CC(O)COc1ccc(C(F)(F)F)cc1 (stereo not drawn) [compound 52]
- EC (30% increase): 1 to 10 µM

SMILES: Fc1ccccc1CN(CCOc1ccc(C(F)(F)F)cc1)Cc1cncs1 [compound 173]
- EC (30% increase): ≤ 1 µM

SMILES: Cc1ccccc1CN(Cc1c[nH]cn1)CC(O)COc1ccc(C(F)(F)F)cc1 (stereo not drawn) [compound 69]
- EC (30% increase): ≤ 1 µM

SMILES: Cc1ccccc1CN(Cc1cccnc1)CC(C)(O)COc1ccc(C(F)(F)F)cc1 (stereo not drawn) [compound 200]
- EC (30% increase): ≤ 1 µM

SMILES: Cn1ccnc1C1Cc2ccccc2CN1CCCOc1ccc(C(F)(F)F)cc1 (stereo not drawn) [compound 175]
- EC (30% increase): ≤ 1 µM

SMILES: OC(COc1ccc(C(F)(F)F)cc1)CN1Cc2ccccc2C1c1ccccc1 (stereo not drawn) [compound 22]
- EC (30% increase): 1 to 10 µM

SMILES: Cc1ccncc1CN(Cc1cnccc1C)CC(O)COc1ccc(C(F)(F)F)cc1 (stereo not drawn) [compound 33]
- EC (30% increase): 1 to 10 µM

SMILES: Cc1ccccc1CN(CCCOc1ccc(C(F)(F)F)cc1)Cc1cccnn1 [compound 183]
- EC (30% increase): ≤ 1 µM

SMILES: Cc1ncccc1CN(CC(O)COc1ccc(C(F)(F)F)cc1)C(=O)c1cncn1C (stereo not drawn) [compound 146]
- EC (30% increase): > 10 µM

SMILES: [2H]C(C)(c1cccnc1)N(Cc1ccccc1Cl)CC(O)COc1ccc(C(F)(F)F)cc1 (stereo not drawn) [compound 163]
- EC (30% increase): > 10 µM

SMILES: Cc1ccccc1CN(Cc1cncs1)CC(O)COc1ccc(C(F)(F)F)cc1 (stereo not drawn) [compound 40]
- EC (30% increase): ≤ 1 µM

SMILES: Cc1ccccc1CN(CC(O)COc1ccc(C(F)(F)F)cc1)C(C)c1cccnc1 (stereo not drawn) [compound 118]
- EC (30% increase): > 10 µM

SMILES: Cn1ccnc1C1c2ccccc2CCN1CCCOc1ccc(C(F)(F)F)cc1 (stereo not drawn) [compound 199]
- EC (30% increase): 1 to 10 µM

SMILES: Cn1cncc1C(=O)N(CC(=O)COc1ccc(C(F)(F)F)cc1)Cc1ccccc1Cl [compound 161]
- EC (30% increase): ≤ 1 µM

SMILES: Cn1cncc1C(=O)N(Cc1ccccc1Cl)CC(C)(C)COc1ccc(C(F)(F)F)cc1 [compound 194]
- EC (30% increase): ≤ 1 µM

SMILES: Cc1ccc2c(c1)CC(c1nccn1C)N(CC(O)COc1ccc(C(F)(F)F)cc1)C2 (stereo not drawn) [compound 189]
- EC (30% increase): > 10 µM

SMILES: Cn1cncc1CN(Cc1ccccc1Cl)CC(O)COc1ccc(F)cc1F (stereo not drawn) [compound 147]
- EC (30% increase): > 10 µM

SMILES: FC(F)(F)c1ccc(OCCCN(Cc2ccccc2)Cc2cccnc2)cc1 [compound 136]
- EC (30% increase): ≤ 1 µM

SMILES: Cc1ccncc1C1OC(COc2ccc(C(F)(F)F)cc2)CN1Cc1cccnc1 (stereo not drawn) [compound 31]
- EC (30% increase): 1 to 10 µM

SMILES: Cc1ccccc1CN(CC(O)COc1ccc(C(F)(F)F)cc1)C(=O)c1ccnn1C (stereo not drawn) [compound 152]
- EC (30% increase): 1 to 10 µM

SMILES: CC(C)(COc1ccc(C(F)(F)F)cc1)CN(Cc1cccnc1)Cc1ccccc1F [compound 185]
- EC (30% increase): ≤ 1 µM

SMILES: OC(COc1ccncc1)CN(Cc1ccccc1)Cc1ccccc1 (stereo not drawn) [compound 17]
- EC (30% increase): > 10 µM

SMILES: CC(c1cccnc1)N(Cc1ccccc1Cl)CC(O)COc1ccc(C(F)(F)F)cc1 (stereo not drawn) [compound 138]
- EC (30% increase): > 10 µM

SMILES: Cc1ccccc1CN(CCCOc1ccc(C(F)(F)F)cc1)C(=O)c1cncn1C [compound 109]
- EC (30% increase): ≤ 1 µM

SMILES: Cc1ccccc1CN(Cc1ccccc1C)CC(O)COc1ccc(C(F)(F)F)cc1 (stereo not drawn) [compound 4]
- EC (30% increase): ≤ 1 µM

SMILES: Cc1ccccc1CN(Cc1nccn1C)CC(O)COc1ccc(C(F)(F)F)cc1 (stereo not drawn) [compound 72]
- EC (30% increase): ≤ 1 µM

SMILES: Cc1ccncc1CN(Cc1cccnc1)CC(O)COc1ccc(C(F)(F)F)cc1 (stereo not drawn) [compound 29]
- EC (30% increase): ≤ 1 µM

SMILES: Cc1ccccc1CN(Cc1ncc[nH]1)CC(O)COc1ccc(C(F)(F)F)cc1 (stereo not drawn) [compound 36]
- EC (30% increase): ≤ 1 µM

SMILES: OC(COc1ccc(C(F)(F)F)cc1)CN(CC1CCCCC1)CC1CCCCC1 (stereo not drawn) [compound 3]
- EC (30% increase): 1 to 10 µM

SMILES: FC(F)(F)c1ccc(OCCN(Cc2cccnc2)Cc2ccccc2Cl)cc1 [compound 155]
- EC (30% increase): ≤ 1 µM

SMILES: Cc1ccccc1CN(Cc1cccnc1)CC(F)COc1ccc(C(F)(F)F)cc1 (stereo not drawn) [compound 165]
- EC (30% increase): ≤ 1 µM

SMILES: Cc1ccccc1CN(Cc1cc[nH]n1)CC(O)COc1ccc(C(F)(F)F)cc1 (stereo not drawn) [compound 37]
- EC (30% increase): 1 to 10 µM

SMILES: Cc1ccncc1CN(Cc1cccnc1C)CC(O)COc1ccc(C(F)(F)F)cc1 (stereo not drawn) [compound 32]
- EC (30% increase): ≤ 1 µM

SMILES: OC(COc1ccc(C(F)(F)F)cc1)CN1Cc2ccccc2CC1c1ccccc1 (stereo not drawn) [compound 20]
- EC (30% increase): 1 to 10 µM

SMILES: O[C@H](COc1ccc(C(F)(F)F)cc1)CN1Cc2ccccc2C[C@@H]1c1cccnc1 [compound 131]
- EC (30% increase): ≤ 1 µM

SMILES: Cc1ccccc1CN(Cc1cccnc1)CC(O)COc1ccc(C(F)(F)F)cc1 (stereo not drawn) [compound 8]
- EC (30% increase): ≤ 1 µM

SMILES: c1ccc(CN(CCCOc2ccccc2)Cc2ccccc2)cc1 [compound 61]
- EC (30% increase): 1 to 10 µM

SMILES: Cc1ncccc1CN(Cc1cccnc1)CC(O)COc1ccc(C(F)(F)F)cc1 (stereo not drawn) [compound 28]
- EC (30% increase): ≤ 1 µM
